Assay: method code SF-AS, from Ploquin, J.; Sparfel, L.; LeBaut, G.; Floc'h, R.; Welin, L.; Petit, Y.; Henry, N. (1974). Pyrophthalones. III. Properties of gamma-pyrophthalones. Eur J Med Chem, 9(5)526-533.
Conditions: pH 7.4

Row | logD | Compound
1 | 2.82 | CC1=CC(=C2C(=O)c3ccccc3C2=O)C=CN1CC(C)C
2 | 3.05 | CCCCN1C=CC(=C2C(=O)c3ccccc3C2=O)C=C1
3 | 2.34 | CCN1C=CC(=C2C(=O)c3ccccc3C2=O)C=C1C
4 | 3.45 | CCCCCCCCCN1C=CC(=C2C(=O)c3ccccc3C2=O)C=C1
5 | 2.63 | CCCN1C=CC(=C2C(=O)c3ccccc3C2=O)C=C1C
6 | 2.64 | CCCN1C=CC(=C2C(=O)c3ccccc3C2=O)C=C1
7 | 2.76 | CC(C)CN1C=CC(=C2C(=O)c3ccccc3C2=O)C=C1
8 | 2.99 | O=C1C(=C2C=CN(Cc3ccccc3)C=C2)C(=O)c2ccccc21
9 | 2.33 | CC1=CC(=C2C(=O)c3ccccc3C2=O)C=CN1C(C)C
10 | 2.46 | C=CCN1C=CC(=C2C(=O)c3ccccc3C2=O)C=C1
11 | 1.36 | O=C1C(=C2C=CN(CC(O)CO)C=C2)C(=O)c2ccccc21 (centres undefined)
12 | 2.5 | CC1=CC(=C2C(=O)c3ccccc3C2=O)C=C(C)N1C
13 | 3.3 | O=C1C(=C2C=CN(CCc3ccccc3)C=C2)C(=O)c2ccccc21
14 | 2.75 | CC=CN1C=CC(=C2C(=O)c3ccccc3C2=O)C=C1
15 | 3.27 | CCCCCN1C=CC(=C2C(=O)c3ccccc3C2=O)C=C1
16 | 2.54 | C=CCN1C=CC(=C2C(=O)c3ccccc3C2=O)C=C1C
17 | 2.6 | CC=CN1C=CC(=C2C(=O)c3ccccc3C2=O)C=C1C
18 | 2.11 | COCCN1C=CC(=C2C(=O)c3ccccc3C2=O)C=C1
19 | 2.12 | CCN1C=CC(=C2C(=O)c3ccccc3C2=O)C=C1
20 | 1.9 | CC1=CC(=C2C(=O)c3ccccc3C2=O)C=CN1C
21 | 1.6 | CN1C=CC(=C2C(=O)c3ccccc3C2=O)C=C1
22 | 2.98 | CC(C)CCCCCN1C=CC(=C2C(=O)c3ccccc3C2=O)C=C1
23 | 2.44 | CC(C)N1C=CC(=C2C(=O)c3ccccc3C2=O)C=C1
24 | 1.75 | CC(O)CN1C=CC(=C2C(=O)c3ccccc3C2=O)C=C1 (centres undefined)
